ChEMBL document CHEMBL1158045, “Phenolic constituents of the roots of Sophora flavescens” (J Nat Prod, 2006)
In brackets after ≈: the same amount, converted by molar mass.

System: KB
Experiment: Cytotoxicity against human KB cells
Assay type: functional, cell-based

SMILES	IC50 [µg/mL]
C=C(C)C(CC=C(C)C)Cc1c(O)cc(O)c2c(=O)c(O)c(-c3ccc(O)cc3)oc12 (stereo not given)	24.3 (≈ 57.5 µM)
CC(C)=CCc1cc(-c2cc3cc4c(cc3o2)OCO4)c(O)cc1O	8 (≈ 23.6 µM)
COc1cc2c(c(O)c1C(=O)/C=C/c1ccc(O)cc1O)CC(CC=C(C)C)C(C)(C)O2 (stereo not given) [CYCLOKURARIDIN]	15.1 (≈ 34.4 µM)
C=C(C)C(CC=C(C)C)Cc1c(O)cc(OC)c(C(=O)C(=O)c2ccc(O)cc2O)c1O (stereo not given) [SOPHORADIONE]	29.4 (≈ 66.7 µM)
CC(C)=CCOc1cc(O)c2c(c1CC=C(C)C)OC(c1ccc(O)cc1O)CC2=O (stereo not given) [SOPHORAFLAVANONE L]	7.1 (≈ 16.7 µM)
